# From article PMC4257840 (Journal of Medicinal Chemistry, 2014)
# Like-named read-outs stand apart in the source and are kept apart here.
# Experiments:
# recombinant human Cat S = recombinant human Cat S (Homo sapiens, UniProt P25774); experiment: Cathepsin S inhibition assay; assay type: biochemical; settings: Table S1 counter-screening; read-out: Cathepsin S IC50
# Description: (§6) In all cases, for reactions involving inhibitors, the amount of reaction buffer was adjusted to 60 μL, the inhibitor added as a 10 μL aliquot, and incubated for 20 min with the enzyme prior to reaction start.
# [1] = target: T1, Human recombinant cathepsin L2 (Homo sapiens, UniProt O60911); experiment: Protease counter-screening: Cathepsin L2; assay type: biochemical
# T1 construct: host or cells: NS0 cells
# T1 sequence (O60911 114-334): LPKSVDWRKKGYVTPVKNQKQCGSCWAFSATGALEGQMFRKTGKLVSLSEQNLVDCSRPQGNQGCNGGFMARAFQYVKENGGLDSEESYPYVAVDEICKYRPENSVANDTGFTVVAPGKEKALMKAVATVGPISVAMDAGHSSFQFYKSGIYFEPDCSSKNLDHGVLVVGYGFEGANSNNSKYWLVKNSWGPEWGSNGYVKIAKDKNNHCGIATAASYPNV
# Description: (§1) Appendix 7. Protease Counter -Screening
# (§2) Protease counter-screeni ng was performed using the methods described below. Initial screening was conducted in duplicate using a single test substance concentration of 10 µ M .
# (§3) Additional assays were conducted in replicate for selected pairin gs of test s ubstance and enz yme in order to enable the determination of IC50 values using conventional procedures.
# (§4) Determination of K i was made using the Batch K i program (Biokin Ltd, Pullman, WA) to derive values from the Morrison equation: […]
# (§5) Where [E ] is the active enz yme concentration, Kiapp is the apparent inhibition const ant, v 0 is the control velocit y in the absence of inhibitors, vb is the background velocity, v is the initial reaction velocit y in the presence of inhibitor, and I is the inhibitor concentration.Thence:
# Where [S ] is the substrate concentration and KM is the Michealis constant.
# Caspase 1: Activity against human recombinant caspase 1 expressed in E. coli was tested using Ac-YVAD- AMC as the substrate. Test compound or vehicle was pre- incubated with 600 […]
# followed by excitation/emission at 485/535 nm. […]
# AMC formation was read at 360 nm/465 nm.
# Cathepsin L2: Human recombinant cathepsin L2 expressed in NS0 cells was used as the enzyme source. […] Form ation of AMC was measured at 360 […]
# The amount of AMC formed was read spectrofluorimetricall y at 360 nm/465 nm. […]
# [2] = Pharmacokinetics after oral and iv dosing to rats; assay type: in vivo, Sprague-Dawley rat; settings: rat
# Description: Appendix 2. Pharmaco kinetics an d P l a s ma Protein Binding […]
# Pharma cokinetics. In vivo PK characteristics were determined using non- fasted Sprague-Dawle y rats (mal e, 200-300 g, 10- 16 weeks of age) with groups of three animals per route per compound. Soluble formulations were developed and verified b y HP LC/UV s o that compounds were dosed discretel y b y the iv (1 mg/kg, 1 mL/kg) and po (5 mg/kg, 5 mL/kg) routes. Blood samples were obtained at various times after dosing and plasma prepared for LC -MS-MS quantification of the test substance after inclusion of an intern al standard . PK p aramet ers were calculated usin g a non -compartmental model in WinNonlin v5.2.
# Plasma Protein Binding Assay. PPB was determined with a Rapid Equilibrium Dialysis device using 8 kDa molecular weight cut-off inserts (Fisher Scientific UK Ltd, Leicest ershire, UK) as described b y the manufacturer. R at (Sprague Dawl e y strain) plasma EDTA K2 (mixed gender, pooled, SeraLab, West Sussex, UK) was thawed and centrifuged at 13,000 x g for 10 min to remove precipitates before being spiked with compounds (5 µM). The concentrations of compounds in the plasma and buffer chambers were determined b y LC -MS-MS (AB Sciex 3200 QTrap) anal ysis after 4 h incubation at 37 °C. Binding was calculated from the concentration percentage in both chambers as shown below. Assays were p erfo rmed in replicate and the data
# [3] = target: T2, Factor Xa from human plasma (Homo sapiens, UniProt P00742); experiment: Protease counter-screening: Factor Xa; assay type: biochemical
# T2 construct: containing 0.4 nM Factor Xa from human plasma; from tissue; host or cells: human plasma
# T2 sequence (P00742 235-488 limits assumed): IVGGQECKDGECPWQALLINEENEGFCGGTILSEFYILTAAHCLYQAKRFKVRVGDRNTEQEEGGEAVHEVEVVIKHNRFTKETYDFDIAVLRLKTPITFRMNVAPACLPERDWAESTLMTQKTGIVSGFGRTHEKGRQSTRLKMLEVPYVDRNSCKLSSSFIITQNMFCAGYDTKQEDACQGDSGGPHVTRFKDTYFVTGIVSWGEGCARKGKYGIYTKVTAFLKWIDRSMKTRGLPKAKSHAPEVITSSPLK
# T2 sequence (P00742 41-179 limits assumed): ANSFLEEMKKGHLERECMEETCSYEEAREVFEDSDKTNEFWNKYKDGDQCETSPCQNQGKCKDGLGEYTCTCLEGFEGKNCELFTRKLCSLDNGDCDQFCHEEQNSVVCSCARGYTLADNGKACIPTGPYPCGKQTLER
# Description: as §1, §2, §3, §4, §5
# Where [S ] is the substrate concentration and KM is the Michealis constant. […]
# Test compound or vehicle was pre- incubated with 600 […]
# The reaction was […]
# initiated by addition of 1 µM N-CH3-SO2-D-FGR-pNA for another 120 min incubation period.
# The amount of pNA formed was read spectrophotometricall y at 405 nm.
# Factor Xa: Test compound or vehicle was pre -incubated for 15 min at 25 °C in modified 50 mM Tris-HCl buffer pH 7.6 containing 0.4 nM Factor Xa from human plasma. The reaction was initiated by addition of 0.3 mM N-a-Z-D-RGR-pNA for another 60 min incubation period. […]
# human liver Cat B = human liver Cat B (Homo sapiens, UniProt P07858); experiment: Cathepsin B inhibition assay
# Description: Inhibition of Cat B was measured as described with modifications.[25] […] Progress curves were followed at 30 °C by detection of fluorescence at 320/420 nm (excitation/emission).
# as §6
# recombinant human Cat S, sequence (P25774 115-331): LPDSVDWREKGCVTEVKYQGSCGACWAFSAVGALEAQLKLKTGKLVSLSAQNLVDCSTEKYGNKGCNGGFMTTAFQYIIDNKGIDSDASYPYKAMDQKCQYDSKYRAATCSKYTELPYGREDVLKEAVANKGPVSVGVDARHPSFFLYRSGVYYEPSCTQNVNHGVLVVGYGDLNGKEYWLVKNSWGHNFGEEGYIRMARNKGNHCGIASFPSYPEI
structure (smiles),measurement,setting,value
"CC(C)[C@H](NC(=O)[C@H](C)NC(=O)[C@@H](NC(=O)c1ccccc1)C(C)(C)C)C(=O)C(=O)NCc1ccccc1 [Compound 38, N-{(S)-1-[(S)-1-((S)-1-Benzylaminooxalyl-2-methyl-propylcarbamoyl)-ethylcarbamoyl]-2,2-dimethyl-propyl}-benzamide]",IC50,recombinant human Cat S,170 nM
same,IC50,[1],3530 nM
same,Cmax,"[2]; male, Sprague-Dawley, plasma, 5 mg/kg po, mean ± SE, n = 3",732 ± 3 nM
same,bioavailability,"[2]; male, Sprague-Dawley, plasma, po, 5 mg/kg, 5 mg/kg po compared with 1 mg/kg iv, nonfasted Sprague–Dawley rats, mean ± SE, n = 3, read-out: F % (bioavailability)",33 ± 8%
same,free conc Cmax,[2]; 5 mg/kg po,29 ± 0 nM
same,inhibition at 10 µM,[3],7%
same,IC50,"human liver Cat B; read-out: Cat B IC50, mean ± SE",512 ± 59 nM
same,IC50,"human liver Cat B; read-out: Cathepsin B IC50, Table S1 counter-screening",510 nM
